Assay [1] has as its target T1, TCPTP (Homo sapiens, UniProt P17706).
T1 construct: His; made in house; host or cells: E. coli
T1 sequence (P17706 1-415): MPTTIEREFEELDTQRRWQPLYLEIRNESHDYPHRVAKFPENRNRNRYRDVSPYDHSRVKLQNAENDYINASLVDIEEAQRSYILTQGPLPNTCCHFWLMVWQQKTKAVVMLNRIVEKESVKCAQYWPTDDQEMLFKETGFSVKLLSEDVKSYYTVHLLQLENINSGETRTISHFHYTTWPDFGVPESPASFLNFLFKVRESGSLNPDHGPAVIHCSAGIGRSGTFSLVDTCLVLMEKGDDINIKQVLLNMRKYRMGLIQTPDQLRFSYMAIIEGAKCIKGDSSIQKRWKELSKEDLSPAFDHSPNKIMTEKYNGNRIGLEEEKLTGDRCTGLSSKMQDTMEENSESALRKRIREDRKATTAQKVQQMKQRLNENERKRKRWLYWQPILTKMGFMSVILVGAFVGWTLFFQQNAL
Description: PTPs activity assay (DiFMUP). The class given is biochemical. The method, then: (§1) Catalytic activity screening methods for PTPs using candidate compounds were performed as previously described.^[ [77] ^] In brief, soluble fusion PTP proteins, His‐ΔSHP2, encompassing the peptide from amino acids 205–593 retaining PTP activity, His‐ΔSHP2^K325A, His‐ΔSHP1, encompassing the peptide from amino acids 202–595 retaining PTP activity, His‐PTP1B, His‐HePTP, His‐VHR, and His‐TCPTP were cloned, expressed, and purified in E. coli. After determining protein concentration using bicinchoninic acid (BCA) assay kit, 1 µg fusion protein, 10 µM library compound were added in 100 µL reaction mixture (55 mM 4‐(2‐hydroxyethyl)‐1‐piperazineethanesulfonic acid [HEPES], 100 mM sodium chloride [NaCl], 0.5 mM ethylenediaminetetraacetic acid [EDTA], 1 mM dithiothreitol [DTT], 0.01% Triton X‐100, 0.002% bovine serum albumin [BSA], and 0.1% dimethyl sulfoxide [DMSO]) and incubated at 37 °C for 30 min in the dark, with Na3VO4 as positive control. The detection substrate DiFMUP (50 µM) was promptly added to each reaction and functioned at 37 °C for 30 min in the dark. The fluorescence intensity was then measured using Multimode Plate Reader (λa = 358 nm, λe = 455 nm, PerkinElmer, USA).

Assay [2] addresses T2, PTP1B (Homo sapiens, UniProt P18031).
T2 construct: His; made in house; host or cells: E. coli
T2 sequence (P18031 1-435): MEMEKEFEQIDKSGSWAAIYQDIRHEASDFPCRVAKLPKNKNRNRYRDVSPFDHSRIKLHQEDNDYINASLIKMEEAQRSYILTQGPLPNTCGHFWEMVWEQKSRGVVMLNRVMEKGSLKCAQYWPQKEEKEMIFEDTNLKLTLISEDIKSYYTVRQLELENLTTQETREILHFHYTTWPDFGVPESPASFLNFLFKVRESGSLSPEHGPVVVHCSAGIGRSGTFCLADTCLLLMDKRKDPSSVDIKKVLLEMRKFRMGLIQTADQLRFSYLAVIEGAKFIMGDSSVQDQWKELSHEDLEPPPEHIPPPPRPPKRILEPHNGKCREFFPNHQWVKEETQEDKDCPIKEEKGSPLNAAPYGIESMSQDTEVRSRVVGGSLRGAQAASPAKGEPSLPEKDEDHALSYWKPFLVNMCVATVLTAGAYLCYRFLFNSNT
Description: PTPs activity assay (DiFMUP). The assay is classed as biochemical. To be noted: read-out: IC50 of PTPs PTP1B. The method, then: as §1

In assay [3] the target is T3, ΔSHP2 (Homo sapiens, UniProt Q06124).
T3 construct: His‐ΔSHP2, encompassing the peptide from amino acids 205–593 retaining PTP activity; His; made in house; host or cells: E. coli
T3 sequence (Q06124 205-593): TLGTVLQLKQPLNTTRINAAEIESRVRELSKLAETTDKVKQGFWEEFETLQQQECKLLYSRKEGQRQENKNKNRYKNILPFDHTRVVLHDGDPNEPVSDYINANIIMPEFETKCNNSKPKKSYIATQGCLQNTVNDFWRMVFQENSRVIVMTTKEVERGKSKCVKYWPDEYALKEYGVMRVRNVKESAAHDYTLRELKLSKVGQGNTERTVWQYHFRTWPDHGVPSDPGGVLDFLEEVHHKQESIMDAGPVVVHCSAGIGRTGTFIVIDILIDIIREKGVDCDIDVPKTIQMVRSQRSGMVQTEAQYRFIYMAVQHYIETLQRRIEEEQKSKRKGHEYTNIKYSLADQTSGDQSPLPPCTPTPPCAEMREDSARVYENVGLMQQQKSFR
Description: PTPs activity assay (DiFMUP). The class given is biochemical. Here is the method: as §1

Assay [4] concerns the target T4, HePTP (Homo sapiens, UniProt P35236).
T4 construct: His; made in house; host or cells: E. coli
T4 sequence (P35236 1-360): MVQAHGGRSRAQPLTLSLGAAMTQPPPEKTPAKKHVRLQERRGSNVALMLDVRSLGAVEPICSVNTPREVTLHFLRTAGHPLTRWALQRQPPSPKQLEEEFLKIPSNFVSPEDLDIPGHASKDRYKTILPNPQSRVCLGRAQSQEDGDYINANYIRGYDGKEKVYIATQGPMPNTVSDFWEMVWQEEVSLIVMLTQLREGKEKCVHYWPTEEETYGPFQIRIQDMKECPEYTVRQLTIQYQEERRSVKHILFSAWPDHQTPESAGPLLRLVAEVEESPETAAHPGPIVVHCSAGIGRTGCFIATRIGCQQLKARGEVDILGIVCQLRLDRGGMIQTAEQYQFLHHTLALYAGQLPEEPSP
Description: PTPs activity assay (DiFMUP). The assay is classed as biochemical. The method, then:
as §1

Assay [5] has as its target T5, ΔSHP1 (Homo sapiens, UniProt P29350).
T5 construct: His‐ΔSHP1, encompassing the peptide from amino acids 202–595 retaining PTP activity; His; made in house; host or cells: E. coli
The assay is described as follows: PTPs activity assay (DiFMUP). The assay is classed as biochemical. The method, then: as §1

Assay [6] deals with T6, VHR (Homo sapiens, UniProt P51452).
T6 construct: His; made in house; host or cells: E. coli
T6 sequence (P51452 whole entry): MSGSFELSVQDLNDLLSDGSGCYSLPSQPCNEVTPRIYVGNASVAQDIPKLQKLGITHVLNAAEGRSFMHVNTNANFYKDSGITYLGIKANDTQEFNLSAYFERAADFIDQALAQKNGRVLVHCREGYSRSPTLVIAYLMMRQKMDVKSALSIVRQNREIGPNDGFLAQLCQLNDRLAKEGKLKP
Description: PTPs activity assay (DiFMUP). The class given is biochemical. Here is the method:
as §1

The subject of assay [7] is A549, NCI‐H2122, and NCI‐H1944 cells. The assay is described as follows: Effect of candidate drugs on cell viability and colony formation. The assay is classed as cell-based, human. Conditions: 1, 10 and 50 μM viability; 10 µM colony formation. The method, then: supplies are listed in Supplementary Table S5. The relevant reagents for protein extraction from Escherichia coli are listed in Supplementary Table S6. Inhibitory effects of embelin on KRAS-mutant and wild-type cells are listed in Supplementary Table S7.
For the adherent cell viability assay, cells in the logarithmic growth phase were seeded in 96-well culture plates at a density of 5×103 well-1 and incubated overnight. Diluted compounds or DMSO were added, or specific treatments were incubated at 37 °C and 5% CO2 for 24 h or 48 h. Cell viability was determined using CCK-8 or CellLightTM Cell Viability Assay Kit, according to the manufacturer's protocol. The luminescence signals of the treated samples were normalized to those of the DMSO group.
For spherical cell viability assays, cells in the logarithmic growth phase were inoculated ata density of 4×10^3 well-1 into 96-well spherical cell microplates and incubated at 37 °C, 5% CO2 for 24 h or 48 h. Cell viability was measured using the CellTiter-Glo® Luminescent Cell Viability 3D Cell Viability Assay Kit, according to the manufacturer’s protocol. The remaining steps were the same as those described above.
Colony formation experiment […]
Finally, the staining results were recorded using an inverted microscope. […]

Data on one molecule can be found in article PMC12005787, “Synthetic Lethality of SHP2 and XIAP Suppresses Proliferation and Metastasis in KRAS‐mutant Nonsmall Cell Lung Cancer” (Advanced Science, 2025).

SMILES strings stand for the structures. Bounds are passed on as bounds.

In general, IC50 refers to the midpoint of a concentration-inhibition curve.

T5 sequence (P29350 202-595, stated change not applied): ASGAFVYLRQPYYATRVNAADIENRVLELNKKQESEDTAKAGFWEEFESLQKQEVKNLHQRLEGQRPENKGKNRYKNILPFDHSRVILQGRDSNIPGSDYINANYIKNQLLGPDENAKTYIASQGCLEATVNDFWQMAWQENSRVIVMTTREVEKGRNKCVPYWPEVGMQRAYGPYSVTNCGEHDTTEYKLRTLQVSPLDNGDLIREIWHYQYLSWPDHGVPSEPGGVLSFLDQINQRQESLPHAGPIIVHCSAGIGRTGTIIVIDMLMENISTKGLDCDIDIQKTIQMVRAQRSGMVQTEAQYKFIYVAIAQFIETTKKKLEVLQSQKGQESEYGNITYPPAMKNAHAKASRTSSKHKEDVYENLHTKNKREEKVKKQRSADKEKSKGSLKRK

For `CC1=NN(c2ccc(C)c(C)c2)C(=O)/C1=N\Nc1cccc(-c2cccc(C(=O)O)c2)c1O` [S2229, Eltrombopag Olamine], the IC50 in assay [1] was greater than 200 µM; in assay [2] it was 145 µM; in assay [3] it was 21.7 µM; in assay [4], 202 µM; in assay [5], greater than 200 µM; in assay [6], 242 µM. Also, the “effect on proliferation of KRAS‐mutation cells” value in assay [7] is “inhibited the proliferation”.
